Results as given in patent publication US9980943B2, “Methods of treating muscular dystrophy” (BOARD OF REGENTS OF THE NEVADA SYSTEM OF HIGHER EDUCATION, …, priority 2013, dated 2018).

Legend:
Format in all cases: cell-based, mouse
[1] = system: α7 integrin (LacZ reporter in α7+/LacZ myotubes); test: Myotube α7 integrin FDG assay (Burkin assay in myotubes, 96-well); conditions: for Burkin Assay in Myotubes, value relative to DMSO: SU9516 analogs, 96-well, N=3-6
[2] = system: β-galactosidase in CMV-LacZ C2C12 myoblasts; test: CMV-LacZ secondary screen in C2C12 myoblasts (β-Gal stabilizing assay); conditions: for CMV-LACZ in Myoblasts, value relative to DMSO: SU9516 analogs, C2C12 CMV-LacZ, N=2; for CMV-LACZ in Myoblasts (β-galactosidase activity relative to DMSO): CMV-LacZ C2C12 myoblasts
Method in brief: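 β-gal stabilization was measured in C2C12 myoblasts or myotubes stably transfected with a CMV-driven LacZ construct, using the FDG β-gal assay. Compounds were tested in dose-response at 0.5, 1, 5, 10, 20 and 40 μM, with two replicates per point.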

[3] = system: α7 integrin (LacZ reporter in α7βgal+/− myoblasts); test: Myoblast α7+/LacZ integrin FDG assay (Burkin assay in myoblasts, 96-well); conditions: 96-well; for Burkin Assay in Myoblasts, value relative to DMSO: SU9516 analogs, N=3-6; for Burkin Assay in Myoblasts, signal relative to DMSO: α7+/LacZ myoblasts
[4] = system: β-galactosidase in CMV-LacZ C2C12 myotubes; test: CMV-LacZ secondary screen in C2C12 myotubes (β-Gal stabilizing assay); conditions: for CMV-LACZ in Myotubes, value relative to DMSO: SU9516 analogs, C2C12 CMV-LacZ, N=2; for CMV-LACZ in Myotubes, signal relative to DMSO: C2C12 CMV-LacZ myotubes, fold relative to DMSO
Method in brief: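 First, C2C12 myoblasts were transfected with a linearized CMV-LACZ vector and clonal lines selected by FDG β-gal assay. Then cells were exposed to compounds at 0.5, 1, 5, 10, 20 and 40 μM in 96-well format, two replicates each, and β-gal measured.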

Q: Which “Burkin Assay in Myotubes, value relative to DMSO” value ([1]; 0.5 uM) does the source give for `Cc1ccc2c(c1)/C(=C/c1ccc(F)cc1)C(=O)N2` [MLS001202366-01] here?
A: The value was 1.114.

Q: And the “Burkin Assay in Myotubes, value relative to DMSO” value ([1]; 1 uM)?
A: The value was 1.099.

Q: What about the “Burkin Assay in Myotubes, value relative to DMSO” value ([1]; 5 uM) of the same molecule?
A: Its value is 1.089.

Q: What about the “Burkin Assay in Myotubes, value relative to DMSO” value ([1]; 10 uM) of the same molecule?
A: Its value is 0.9194.

Q: And the “Burkin Assay in Myotubes, value relative to DMSO” value ([1]; 20 uM)?
A: Its value is 0.5272.

Q: What about the “Burkin Assay in Myotubes, value relative to DMSO” value ([1]; 40 uM) of the same molecule?
A: The value was 0.5105.

Q: What about the “CMV-LACZ in Myoblasts, value relative to DMSO” value ([2]; 0.5 uM) of the same molecule?
A: Its value is 0.7656.

Q: And the “CMV-LACZ in Myoblasts, value relative to DMSO” value ([2]; 1 uM)?
A: The value was 0.6431.

Q: What about the “CMV-LACZ in Myoblasts, value relative to DMSO” value ([2]; 5 uM) of the same molecule?
A: The value was 1.0533.

Q: What about the “CMV-LACZ in Myoblasts, value relative to DMSO” value ([2]; 10 uM) of the same molecule?
A: The value was 1.3214.

Q: And the “CMV-LACZ in Myoblasts, value relative to DMSO” value ([2]; 20 uM)?
A: The value was 0.7222.

Q: And the “CMV-LACZ in Myoblasts, value relative to DMSO” value ([2]; 40 uM)?
A: Its value is 0.3322.

Q: And the “Burkin Assay in Myoblasts, value relative to DMSO” value ([3]; 0.5 uM)?
A: Its value is 1.007.

Q: And the “Burkin Assay in Myoblasts, value relative to DMSO” value ([3]; 1 uM)?
A: Its value is 0.9698.

Q: What about the “Burkin Assay in Myoblasts, value relative to DMSO” value ([3]; 5 uM) of the same molecule?
A: The value was 0.8762.

Q: What about the “Burkin Assay in Myoblasts, value relative to DMSO” value ([3]; 10 uM) of the same molecule?
A: The value was 0.7458.

Q: And the “Burkin Assay in Myoblasts, value relative to DMSO” value ([3]; 20 uM)?
A: Its value is 0.4873.

Q: And the “Burkin Assay in Myoblasts, value relative to DMSO” value ([3]; 40 uM)?
A: Its value is 0.2456.

Q: What about the “CMV-LACZ in Myotubes, value relative to DMSO” value ([4]; 0.5 uM) of the same molecule?
A: The value was 0.9844.

Q: What about the “CMV-LACZ in Myotubes, value relative to DMSO” value ([4]; 1 uM) of the same molecule?
A: Its value is 1.0570.

Q: And the “CMV-LACZ in Myotubes, value relative to DMSO” value ([4]; 5 uM)?
A: Its value is 0.8072.

Q: What about the “CMV-LACZ in Myotubes, value relative to DMSO” value ([4]; 10 uM) of the same molecule?
A: The value was 0.9927.

Q: What about the “CMV-LACZ in Myotubes, value relative to DMSO” value ([4]; 20 uM) of the same molecule?
A: Its value is 0.8329.

Q: And the “CMV-LACZ in Myotubes, value relative to DMSO” value ([4]; 40 uM)?
A: The value was 1.0847.

Q: Which “Burkin Assay in Myotubes, α7 integrin LacZ reporter signal relative to DMSO” value ([1]; 0.5 uM) does the source give for `O=C1Nc2ccccc2/C1=C/c1ccccc1F` [MLS001202389-01] here?
A: Its value is 0.9181.

Q: What about the “Burkin Assay in Myotubes, α7 integrin LacZ reporter signal relative to DMSO” value ([1]; 1 uM) of the same molecule?
A: The value was 0.9393.

Q: And the “Burkin Assay in Myotubes, α7 integrin LacZ reporter signal relative to DMSO” value ([1]; 5 uM)?
A: The value was 0.9936.

Q: What about the “Burkin Assay in Myotubes, α7 integrin LacZ reporter signal relative to DMSO” value ([1]; 10 uM) of the same molecule?
A: Its value is 1.053.

Q: What about the “Burkin Assay in Myotubes, α7 integrin LacZ reporter signal relative to DMSO” value ([1]; 20 uM) of the same molecule?
A: Its value is 0.6412.

Q: And the “Burkin Assay in Myotubes, α7 integrin LacZ reporter signal relative to DMSO” value ([1]; 40 uM)?
A: Its value is 0.5594.

Q: And the “CMV-LACZ in Myoblasts (β-galactosidase activity relative to DMSO)” value ([2]; 0.5 uM)?
A: The value was 1.0237.

Q: What about the “CMV-LACZ in Myoblasts (β-galactosidase activity relative to DMSO)” value ([2]; 1 uM) of the same molecule?
A: Its value is 1.1108.

Q: And the “CMV-LACZ in Myoblasts (β-galactosidase activity relative to DMSO)” value ([2]; 5 uM)?
A: Its value is 1.0084.

Q: What about the “CMV-LACZ in Myoblasts (β-galactosidase activity relative to DMSO)” value ([2]; 10 uM) of the same molecule?
A: Its value is 0.8920.

Q: What about the “CMV-LACZ in Myoblasts (β-galactosidase activity relative to DMSO)” value ([2]; 20 uM) of the same molecule?
A: The value was 0.6115.

Q: What about the “CMV-LACZ in Myoblasts (β-galactosidase activity relative to DMSO)” value ([2]; 40 uM) of the same molecule?
A: Its value is 0.5081.

Q: What about the “Burkin Assay in Myoblasts, signal relative to DMSO” value ([3]; 0.5 uM) of the same molecule?
A: The value was 0.9323.

Q: And the “Burkin Assay in Myoblasts, signal relative to DMSO” value ([3]; 1 uM)?
A: The value was 0.9481.

Q: What about the “Burkin Assay in Myoblasts, signal relative to DMSO” value ([3]; 5 uM) of the same molecule?
A: The value was 1.009.

Q: And the “Burkin Assay in Myoblasts, signal relative to DMSO” value ([3]; 10 uM)?
A: Its value is 1.1004.

Q: And the “Burkin Assay in Myoblasts, signal relative to DMSO” value ([3]; 20 uM)?
A: The value was 0.5816.

Q: What about the “Burkin Assay in Myoblasts, signal relative to DMSO” value ([3]; 40 uM) of the same molecule?
A: The value was 0.2556.

Q: What about the “CMV-LACZ in Myotubes, signal relative to DMSO” value ([4]; 0.5 uM) of the same molecule?
A: The value was 1.1558.

Q: And the “CMV-LACZ in Myotubes, signal relative to DMSO” value ([4]; 1 uM)?
A: Its value is 1.1821.

Q: What about the “CMV-LACZ in Myotubes, signal relative to DMSO” value ([4]; 5 uM) of the same molecule?
A: The value was 1.0432.

Q: What about the “CMV-LACZ in Myotubes, signal relative to DMSO” value ([4]; 10 uM) of the same molecule?
A: Its value is 1.1312.

Q: What about the “CMV-LACZ in Myotubes, signal relative to DMSO” value ([4]; 20 uM) of the same molecule?
A: Its value is 1.0900.

Q: What about the “CMV-LACZ in Myotubes, signal relative to DMSO” value ([4]; 40 uM) of the same molecule?
A: The value was 0.9311.

Q: Which results are given for `Cc1ccc2c(c1)/C(=C/c1ccccc1C)C(=O)N2` [MLS001202402-01]?
A: Burkin Assay in Myotubes, value relative to DMSO ([1]; 0.5 uM): 0.9628; Burkin Assay in Myotubes, value relative to DMSO ([1]; 1 uM): 0.8962; Burkin Assay in Myotubes, value relative to DMSO ([1]; 5 uM): 0.9629; Burkin Assay in Myotubes, value relative to DMSO ([1]; 10 uM): 1.0295; Burkin Assay in Myotubes, value relative to DMSO ([1]; 20 uM): 0.5907; Burkin Assay in Myotubes, value relative to DMSO ([1]; 40 uM): 0.3717; CMV-LACZ in Myoblasts, value relative to DMSO ([2]; 0.5 uM): 1.0546; CMV-LACZ in Myoblasts, value relative to DMSO ([2]; 1 uM): 1.0106; CMV-LACZ in Myoblasts, value relative to DMSO ([2]; 5 uM): 0.8771; CMV-LACZ in Myoblasts, value relative to DMSO ([2]; 10 uM): 0.7598; CMV-LACZ in Myoblasts, value relative to DMSO ([2]; 20 uM): 0.7204; CMV-LACZ in Myoblasts, value relative to DMSO ([2]; 40 uM): 0.4819; Burkin Assay in Myoblasts, value relative to DMSO ([3]; 0.5 uM): 1.051; Burkin Assay in Myoblasts, value relative to DMSO ([3]; 1 uM): 0.9034; Burkin Assay in Myoblasts, value relative to DMSO ([3]; 5 uM): 0.9255; Burkin Assay in Myoblasts, value relative to DMSO ([3]; 10 uM): 1.08; Burkin Assay in Myoblasts, value relative to DMSO ([3]; 20 uM): 0.6481; Burkin Assay in Myoblasts, value relative to DMSO ([3]; 40 uM): 0.325; CMV-LACZ in Myotubes, value relative to DMSO ([4]; 0.5 uM): 0.9200; CMV-LACZ in Myotubes, value relative to DMSO ([4]; 1 uM): 0.8695; CMV-LACZ in Myotubes, value relative to DMSO ([4]; 5 uM): 0.9237; CMV-LACZ in Myotubes, value relative to DMSO ([4]; 10 uM): 0.8015; CMV-LACZ in Myotubes, value relative to DMSO ([4]; 20 uM): 0.8847; CMV-LACZ in Myotubes, value relative to DMSO ([4]; 40 uM): 0.8129
